Blank lines part the entries; values can stand above or below the compound they belong to. Activity calls are given as the source filed them.
Experiments:
[1] = biological target: T1, NAD-dependent protein deacylase sirtuin-5, mitochondrial (Homo sapiens, UniProt Q9NXA8); experiment: SIRT5 deacylase inhibitors, dose response, biochemical, fluorescence imaging, cherry-pick, set 6 (AID 720597)
[2] = biological target: T1, NAD-dependent protein deacylase sirtuin-5, mitochondrial; experiment: SIRT5 desuccinylase inhibitors, dose response, biochemical, fluorescence imaging, cherry-pick, set 5 (AID 720591);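 note: desuccinylation of succinyl peptide AMC substrate read as fluorescence after trypsin release; potency of inhibitors that lower fluorescence and may act on trypsin instead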
BJ [3] = experiment: cytotoxicity toward BJ-TERT fibroblasts, dose response, cell-based, RAS-independent, luminescence (AID 1933); assay type: functional; details: Homo sapiens
BJ [4] = experiment: cytotoxicity toward BJ-TERT-LT-ST fibroblasts, dose response, cell-based, RAS-independent, luminescence (AID 1935); assay type: functional; details: Homo sapiens;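 note: BJ fibroblasts immortalized with TERT plus LT and ST oncogenes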
[5] = non-specific cell cytotoxicity, dose response, cytotoxicity control for PAX8 inhibitor project, plate reader, dry powder samples (AID 743021); assay type: functional, cell-based
[6] = MC4R antagonists, dose response, counter-screen for LGR2 antagonist project, cell-based, plate reader, cherry pick (AID 743444); assay type: functional;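 note: transfected HEK 293 cells stimulated with alpha-MSH peptide; potency of inhibitors of the alpha-MSH evoked signal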
Paired box protein Pax-8 = Paired box protein Pax-8 (Homo sapiens, UniProt Q06710); experiment: inhibitors of PAX8-driven TPO luciferase reporter, dose response, RMG-I cells, cherry-pick (AID 687027); assay type: functional, cell-based;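 note: luciferase reporter driven by Pax8 target thyroperoxidase promoter measured by SteadyGlo luminescence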
Paired box protein Pax-8, sequence (Q06710 whole entry, the tested form may be a part): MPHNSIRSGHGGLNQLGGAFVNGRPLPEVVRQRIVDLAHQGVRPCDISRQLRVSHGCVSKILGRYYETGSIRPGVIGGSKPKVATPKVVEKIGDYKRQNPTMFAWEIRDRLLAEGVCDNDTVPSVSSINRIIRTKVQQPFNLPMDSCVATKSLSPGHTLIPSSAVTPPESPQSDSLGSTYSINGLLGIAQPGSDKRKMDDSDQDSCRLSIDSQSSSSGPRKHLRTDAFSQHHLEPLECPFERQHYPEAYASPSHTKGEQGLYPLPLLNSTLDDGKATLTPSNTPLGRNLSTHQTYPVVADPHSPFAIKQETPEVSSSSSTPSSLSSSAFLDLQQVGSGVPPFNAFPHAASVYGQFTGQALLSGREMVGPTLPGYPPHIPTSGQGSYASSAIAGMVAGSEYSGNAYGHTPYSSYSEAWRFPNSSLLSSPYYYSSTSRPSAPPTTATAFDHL

[7] = off-target signal loss in HeLa-CEM21 co-culture – HeLa F-luc CTL cells, cherry-picked, counter-screen for HIV-1 Env fusion inhibitor project, dose response (AID 652040); assay type: functional, cell-based;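 note: potency for signal decrease marking cytotoxic or nonspecific inhibition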
[8] = inhibitors of HIV Env-driven cell fusion, dose response, cherry-pick (AID 652057); assay type: functional, cell-based
[9] = biological target: Luciferin 4-monooxygenase (Photinus pyralis, UniProt P08659); experiment: firefly luciferase enzyme inhibitors, dose response, biochemical, luminescence (AID 1891)
Luciferin 4-monooxygenase, sequence (P08659 whole entry): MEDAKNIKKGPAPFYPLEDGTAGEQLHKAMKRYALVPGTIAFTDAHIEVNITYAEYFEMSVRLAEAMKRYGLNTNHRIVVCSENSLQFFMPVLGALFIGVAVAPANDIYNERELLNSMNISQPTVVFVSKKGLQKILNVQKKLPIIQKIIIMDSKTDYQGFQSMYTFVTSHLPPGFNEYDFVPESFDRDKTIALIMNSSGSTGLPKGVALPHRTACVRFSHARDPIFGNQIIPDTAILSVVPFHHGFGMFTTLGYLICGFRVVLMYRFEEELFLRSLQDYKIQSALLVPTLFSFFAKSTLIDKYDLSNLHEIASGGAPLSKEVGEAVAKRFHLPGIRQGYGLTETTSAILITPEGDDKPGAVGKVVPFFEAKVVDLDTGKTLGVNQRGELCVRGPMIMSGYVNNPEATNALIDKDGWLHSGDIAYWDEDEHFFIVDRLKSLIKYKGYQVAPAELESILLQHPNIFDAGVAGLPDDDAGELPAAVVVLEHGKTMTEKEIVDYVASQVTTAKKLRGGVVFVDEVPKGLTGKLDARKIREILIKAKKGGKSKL

[10] = A549 cell cytotoxicity, dose response, cytotoxicity control, plate reader, cherry-pick, antagonist series (AID 743412); assay type: functional, cell-based
[11] = inhibitors of clade B AD8 Env fusion, dose response, cell-based, cherry-pick (AID 652062); assay type: functional;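 note: luciferase signal from cell-cell fusion driven by HIV-1 clade B AD8 Env; potency is for inhibitors of fusion seen as a drop in luminescence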
[12] = cytotoxicity in HEK-293T cells, dose response, cytotoxicity control for TCR NF-kB inhibitor project, luminescence, T-cell screen hits (AID 489026); assay type: functional, cell-based;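 note: cells exposed to compound about 14 hours before the viability readout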
[13] = CEM21 lymphoblast cell cytotoxicity, dose response, cytotoxicity control for viral fusion inhibitor project, CellTiter-Glo luminescence, cherry-picked (AID 652042); assay type: functional, cell-based;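 note: potency for signal decrease meaning cytotoxicity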
[14] = HepG2 cell cytotoxicity, dose response, cytotoxicity control, plate reader, cherry-pick, antagonist series (AID 743416); assay type: functional, cell-based
[15] = Luminescence Cell-Based Dose Confirmation HTS to Identify Inhibitors of Platelet Dense Granule Release. [Related pubchem assays: 1663 (Primary HTS), 1678 (Summary of Project)]; assay type: functional
[16] = HEK293 cell cytotoxicity, dose response, cytotoxicity control, plate reader, cherry-picked samples (AID 743446); assay type: functional, cell-based
[17] = ZM109 Env clade C HIV-1 fusion inhibitors, dose response, HeLa effector, CEM target cells, luciferase, cherry-pick (AID 652058); assay type: functional, cell-based
BJ [18] = experiment: cells; assay type: functional, cell-based; details: Homo sapiens
[19] = LGR2 antagonists, dose response, cell-based, HEK293, CRE-luciferase reporter, cherry pick, set 2 (AID 743343); assay type: functional;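 note: transfected cells were stimulated with diluted bursicon conditioned medium after compound addition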
[20] = cytotoxicity toward DRD oncogenic fibroblasts, dose response, cell-based, non-viral oncogenic, luminescence (AID 1934); assay type: functional; details: Homo sapiens
[21] = Luminescence-based cell-based high throughput dose response assay to identify activators of the DAF-12 from the parasite S. stercoralis (ssDAF-12).; assay type: functional
[22] = biological target: T2, Oxysterols receptor LXR-beta (Homo sapiens, UniProt P55055); assay type: functional, cell-based;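 note: Cell-based luminescence dose-response assay of agonist activity at LXR, run as a confirmatory counterscreen to a daf-12 agonist screen; agonist potency from rising luciferase signal of a Gal4-LXR reporter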
T2 sequence (P55055 whole entry): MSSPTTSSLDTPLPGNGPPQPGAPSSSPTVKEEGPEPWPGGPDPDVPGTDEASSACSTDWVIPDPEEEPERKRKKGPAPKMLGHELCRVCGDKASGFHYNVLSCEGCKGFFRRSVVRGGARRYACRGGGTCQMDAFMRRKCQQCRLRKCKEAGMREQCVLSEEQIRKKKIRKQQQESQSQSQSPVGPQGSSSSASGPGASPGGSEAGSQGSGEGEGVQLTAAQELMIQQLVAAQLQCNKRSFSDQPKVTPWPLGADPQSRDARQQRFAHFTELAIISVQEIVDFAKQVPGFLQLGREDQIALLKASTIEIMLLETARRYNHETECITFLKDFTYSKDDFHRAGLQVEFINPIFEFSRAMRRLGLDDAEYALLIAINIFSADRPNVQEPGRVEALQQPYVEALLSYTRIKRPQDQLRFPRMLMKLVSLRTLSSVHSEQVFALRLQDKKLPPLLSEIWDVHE

Protein skinhead-1 = biological target: T3, Protein skinhead-1 (Caenorhabditis elegans, UniProt P34707); assay type: functional
T3 sequence (P34707 whole entry): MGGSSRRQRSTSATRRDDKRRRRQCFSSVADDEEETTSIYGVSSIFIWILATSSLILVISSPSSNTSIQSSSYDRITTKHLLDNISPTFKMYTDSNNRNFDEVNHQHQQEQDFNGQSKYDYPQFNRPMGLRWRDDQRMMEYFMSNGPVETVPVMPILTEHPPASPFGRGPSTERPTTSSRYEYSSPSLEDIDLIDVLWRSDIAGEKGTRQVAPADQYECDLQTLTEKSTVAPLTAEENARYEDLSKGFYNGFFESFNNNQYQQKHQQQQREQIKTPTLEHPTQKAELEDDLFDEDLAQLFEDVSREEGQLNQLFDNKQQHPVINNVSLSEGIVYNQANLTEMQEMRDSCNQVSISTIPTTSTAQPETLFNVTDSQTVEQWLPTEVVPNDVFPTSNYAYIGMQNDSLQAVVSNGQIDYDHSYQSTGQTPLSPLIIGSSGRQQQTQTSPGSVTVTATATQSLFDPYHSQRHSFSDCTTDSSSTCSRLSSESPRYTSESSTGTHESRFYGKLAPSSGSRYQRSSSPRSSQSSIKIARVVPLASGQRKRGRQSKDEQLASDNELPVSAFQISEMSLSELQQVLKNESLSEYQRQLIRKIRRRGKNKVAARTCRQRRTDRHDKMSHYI

Cytochrome P450 3A4 = Cytochrome P450 3A4 (Homo sapiens, UniProt P08684);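 note: CYP3A4 tested as one member of a cytochrome P450 panel screen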
Cytochrome P450 3A4, sequence (P08684 whole entry, the tested form may be a part): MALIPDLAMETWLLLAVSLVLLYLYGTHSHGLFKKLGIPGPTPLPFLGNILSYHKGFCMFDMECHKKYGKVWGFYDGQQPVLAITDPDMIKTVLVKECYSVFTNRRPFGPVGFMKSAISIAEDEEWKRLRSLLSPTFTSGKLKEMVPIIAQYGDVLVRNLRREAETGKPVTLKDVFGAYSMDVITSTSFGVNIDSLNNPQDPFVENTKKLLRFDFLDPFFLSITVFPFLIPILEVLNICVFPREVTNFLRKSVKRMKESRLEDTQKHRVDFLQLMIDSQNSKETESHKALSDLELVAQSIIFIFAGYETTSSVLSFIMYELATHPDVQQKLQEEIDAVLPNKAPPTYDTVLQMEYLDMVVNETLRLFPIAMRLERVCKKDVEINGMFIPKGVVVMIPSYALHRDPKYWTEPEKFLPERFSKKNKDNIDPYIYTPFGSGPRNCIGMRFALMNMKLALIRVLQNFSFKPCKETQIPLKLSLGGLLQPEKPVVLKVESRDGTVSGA

[23] = biological target: T2, Oxysterols receptor LXR-beta; experiment: LXR agonists, Gal4 luciferase reporter, dose response, counter-screen for ssDAF-12 agonist project, cell-based, luminescence, HEK293, S. stercoralis campaign (AID 720737); assay type: functional; details: read-out: IC50 (the source's name)
[24] = reduction of Shn3 3'UTR firefly luciferase signal, dose response, Schnurri-3 inhibitor project, cell-based, Clone20 osteoblasts, cherry-pick, set 2 (AID 720490); assay type: functional;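 note: actives lower the luminescence signal as inhibitors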
[25] = control 3'UTR Renilla luciferase suppression, dose response, counter-screen for Shn3 inhibitor project, cell-based, Clone20-Shn3RL, cherry-picked (AID 624133); assay type: functional
[26] = Shn3 3'UTR reporter inhibitors, dose response, cell-based, Clone20 osteoblasts, firefly luciferase, cherry-picked (AID 624132); assay type: functional;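 note: firefly luciferase luminescence from reporter carrying the Shn3 3'UTR in osteoblasts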
[27] = HepG2 cell cytotoxicity, dose response, cytotoxicity control for Shn3 inhibitor project, CellTiter-Glo, cherry-picked (AID 624134); assay type: functional, cell-based

T1 sequence (Q9NXA8 whole entry): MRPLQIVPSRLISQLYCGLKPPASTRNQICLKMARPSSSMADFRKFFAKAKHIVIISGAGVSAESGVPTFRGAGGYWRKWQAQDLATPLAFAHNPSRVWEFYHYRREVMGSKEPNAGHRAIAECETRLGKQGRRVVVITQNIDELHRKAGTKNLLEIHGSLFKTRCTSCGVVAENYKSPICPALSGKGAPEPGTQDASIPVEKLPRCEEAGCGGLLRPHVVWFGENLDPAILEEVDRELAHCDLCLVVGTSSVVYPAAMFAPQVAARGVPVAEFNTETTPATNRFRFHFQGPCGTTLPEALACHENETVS

AC50 [1]: 26.1 µM (active)
Compound: COc1ccc(NC(=O)N2C[C@H](O)COC[C@@H]3O[C@@H](CC(=O)N4CCCCC4)CC[C@H]32)cc1

AC50 [2]: > 30 µM (inactive)
Compound: Cc1ccc(C(=O)COC(=O)CN2C(=O)C3C4CC(C(Br)C4Br)C3C2=O)cc1 (stereo unspecified)

Compound: COc1ccccc1C(=O)Nc1nc2ccccc2s1
EC50 (BJ [3]): 8.4 µM (active) | EC50 (BJ [4]): 15.8 µM (active) | AC50 [5]: 10.5 µM (active) | AC50 [6]: 0.172 µM (active) | AC50 (Paired box protein Pax-8): 3.69 µM (active) | AC50 [7]: 2.59 µM (active) | AC50 [8]: 2.05 µM (active) | EC50 [9]: 0.296 µM (active) | AC50 [10]: 3.04 µM (active) | AC50 [11]: 2.44 µM (active) | IC50 [12]: > 80 µM (inactive) | AC50 [13]: 13.7 µM (active) | AC50 [14]: 3.64 µM (active) | EC50 [15]: 3.96 µM (active) | AC50 [16]: 3.61 µM (active) | AC50 [17]: 10.9 µM (active) | EC50 (BJ [18]): 5.6 µM (active) | AC50 [19]: 0.121 µM (active) | EC50 [20]: 5.93 µM (active)

Compound: Fc1ccc(-c2cn3cc(C(F)(F)F)cc(Cl)c3n2)cc1
IC50 [21]: > 67.5 µM (inactive) | EC50 [22]: > 67.5 µM (inactive) | IC50 (Protein skinhead-1): > 100 µM (inactive) | AC50 (Cytochrome P450 3A4): 14.1 µM (inconclusive) | EC50 [23]: > 67.5 µM (inactive) | EC50 (cells): > 67.5 µM (inactive)

Compound: Cn1c(=O)c2c(nc(NCc3ccco3)n2CCc2ccccc2)n(C)c1=O
AC50 [24]: 2.27 µM (active) | AC50 [25]: 18.3 µM (active) | AC50 [26]: 2.34 µM (active) | AC50 [27]: 50.9 µM (active)
